In ChEMBL document CHEMBL2375293, “Identification of benzofurano[3,2-d]pyrimidin-2-ones, a new series of HIV-1 nucleotide-competing reverse transcriptase inhibitors” (Bioorg Med Chem Lett, 2013):
In brackets after ≈: the same amount, converted by molar mass.

Columns and labels:
[1] = Cytotoxicity against human C8166 cells assessed as inhibition of cell viability after 3 days by MTT assay; format: cell-based
[2] = Antiviral activity against wild type HIV1 BH10 infected in human C8166 cells after 3 days by luciferase reporter gene assay; format: functional, cell-based, Human immunodeficiency virus type 1 BH10; conditions: Human immunodeficiency virus 1, C8166, 72 h
[3] = Inhibition of HIV1 BH10 reverse transcriptase using poly(rA)/oligo(dT)15 as substrate after 60 mins by fluorescence assay; parameters: species or system Human immunodeficiency virus type 1 BH10
[4] = Cytotoxicity against human C8166 cells assessed as inhibition of cell viability at CC50 after 3 days by MTT assay; format: cell-based; conditions: read-out: INH
[5] = Apparent permeability across human Caco2 cells at 10 uM by LC-MS/MS analysis; format: ADME, cell-based; conditions: Caco-2
[6] = tested on: Human immunodeficiency virus type 1 BH10; experiment: Selectivity ratio of EC50 for HIV1 BH10 harboring reverse transcriptase M184V mutant to EC50 for wild type HIV1 BH10; format: functional
[7] = tested on: Human immunodeficiency virus type 1 BH10; experiment: Selectivity ratio of EC50 for HIV1 BH10 harboring reverse transcriptase K65R mutant to EC50 for wild type HIV1 BH10; format: functional
[8] = tested on: Human immunodeficiency virus type 1 BH10; experiment: Selectivity ratio of EC50 for HIV1 BH10 harboring reverse transcriptase K103N/Y181C double mutant to EC50 for wild type HIV1 BH10; format: functional
[9] = Half life in Sprague-Dawley rat liver microsomes at 1 uM by LC-MS/MS analysis; format: ADME, Microsome
[10] = Ratio of EC50 for wild type HIV1 BH10 infected in human C8166 cells in presence of serum to EC50 for wild type HIV1 BH10 infected in human C8166 cells in absence of serum; format: functional, Human immunodeficiency virus type 1 BH10
[11] = Solubility of the compound in phosphate buffer at pH 6.8 after 24 hrs by LC-MS analysis; format: physicochemical
[12] = Half life in human liver microsomes at 1 uM by LC-MS/MS analysis; format: ADME, Microsome
[13] = tested on: Human immunodeficiency virus type 1 BH10; experiment: Selectivity ratio of EC50 for HIV1 BH10 harboring reverse transcriptase Y115F/M184V double mutant to EC50 for wild type HIV1 BH10; format: functional
[14] = Solubility of the compound in phosphate buffer at pH 2 after 24 hrs by LC-MS analysis; format: physicochemical
[15] = Ratio of CC50 for human C8166 cells to EC50 for wild type HIV1 BH10 infected in human C8166 cells
[16] = n-Octanol-phosphate buffer partition coefficient, log D of the compound at 0.5 mg after 24 hrs by LC-MS analysis; format: physicochemical
[17] = tested on: Human immunodeficiency virus type 1 BH10; experiment: Selectivity ratio of EC50 for HIV1 BH10 harboring reverse transcriptase Y115F mutant to EC50 for wild type HIV1 BH10; format: functional

Row | EC50 [2] [nM] | IC50 [3] [nM] | Structure (SMILES) | CC50 at 72 h [1] [nM] | further results
1 | 53 | 7.4 | CCNCC(=O)Nc1ccc(-c2nc(=O)n(CCOC)c3c2oc2cc(-c4ccc(CN(C)C)cc4)ccc23)cc1 | 1000 | –
2 | 550 | 46 | CCNCC(=O)Nc1ccc(-c2nc(=O)n(CCOC)c3c2oc2ccc(Cl)cc23)cc1 | 3000 | –
3 | 1600 | 3100 | CN(C)CC(=O)Nc1ccc(-c2nc(=O)n(C)c3c2oc2ccccc23)cc1 | 7700 | –
4 | 690 | 155 | COCCn1c(=O)nc(-c2cnc(N3CCN(C)CC3)nc2)c2oc3ccccc3c21 | > 9500 | cytotoxicity at 72 h [4]: 40%
5 | – | > 5000 | COCCn1c(=O)nc(-c2ccnc(N3CCN(C)CC3)c2)c2oc3ccc(Br)cc3c21 | – | –
6 | 11000 | 4200 | O=c1nc(-c2ccccc2)c2oc3ccccc3c2n1CCN1CCCC1 | 18000 | –
7 | 360 | 33 | CCNCC(=O)Nc1ccc(-c2nc(=O)n(CCOC)c3c2oc2ccc(-c4ccccc4)cc23)cc1 | 2300 | –
8 | – | > 26000 | O=c1nc(-c2ccccc2)c2oc3ccccc3c2n1CCN1CCOCC1 | – | –
9 | 94 | 12 | CCNCC(=O)Nc1ccc(-c2nc(=O)n(CCOC)c3c2oc2ccc(-c4ccc(CN(C)C)cc4)cc23)cc1 | 3900 | –
10 | 890 | 75 | COCCn1c(=O)nc(-c2ccc(N3CCN(C)CC3)nc2)c2oc3ccc(Cl)cc3c21 | > 5800 | cytotoxicity at 72 h [4]: 37%
11 | 680 | 73 | CCNCC(=O)Nc1ccc(-c2nc(=O)n(CCOC)c3c2oc2ccccc23)cc1 | 5100 | –
12 | > 9300 | 945 | COCCn1c(=O)nc(-c2ccc(C(=O)NCCN(C)C)cc2)c2oc3ccccc3c21 | – | –
13 | 200 | 27 | CCNCC(=O)Nc1ccc(-c2nc(=O)n(CCOC)c3c2oc2ccc(-c4cccnc4)cc23)cc1 | > 5100 | cytotoxicity at 72 h [4]: 33%
14 | 2900 | 320 | O=c1nc(-c2ccccc2)c2oc3ccc(Cl)cc3c2n1CCN1CCC(F)(F)C1 | > 4500 | –
15 | 14000 | 630 | COCCn1c(=O)nc(-c2ccc(OCCN(C)C)cc2)c2oc3ccccc3c21 | – | –
16 | 540 | 42 | CCNCc1nc2cc(-c3nc(=O)n(CCOC)c4c3oc3ccc(Br)cc34)ccc2n1C | > 4400 | cytotoxicity at 72 h [4]: 20%

Row | EC50 [2] [nM] | IC50 [3] [nM] | Structure (SMILES) | CC50 at 72 h [1] [nM] | further results
17 | 87 | 10 | CNCCNc1ccc(-c2nc(=O)n(CCOC)c3c2oc2ccc(Cl)cc23)cc1 | 960 | –
18 | 88 | 8.6 | CCNCC(=O)Nc1ccc(-c2nc(=O)n(CCOC)c3c2oc2cc(-c4ccc5c(c4)CCN(C)C5)ccc23)cc1 | 2100 | –
19 | 175 | 10 | COCCn1c(=O)nc(-c2ccc(N3CCNCC3)cc2)c2oc3ccc(Cl)cc3c21 | 2700 | –
20 | 3700 | 590 | O=c1nc(-c2ccccc2)c2oc3ccc(Cl)cc3c2n1CCN1CCCC1 | > 7300 | cytotoxicity at 72 h [4]: 6%
21 | 210 | 40 | CNC1CCN(c2ccc(-c3nc(=O)n(CCOC)c4c3oc3ccc(Cl)cc34)cn2)C1 (centres undefined) | 4300 | –
22 | 1100 | 390 | COCCn1c(=O)nc(-c2ccc(NC(=O)CN3CCCC3)cc2)c2oc3ccccc3c21 | 5950 | –
23 | 300 | 34 | CCNCC(=O)Nc1ccc(-c2nc(=O)n(CCOC)c3c2oc2ccc(-c4ccc(CO)cc4)cc23)cc1 | > 1300 | –
24 | – | > 83000 | Cn1c(=O)nc(-c2ccccc2)c2oc3ccccc3c21 | – | –
25 | 430 | 24 | COCCn1c(=O)nc(-c2ccc(N3CCN(C)CC3)cc2)c2oc3ccc(Cl)cc3c21 | > 4500 | cytotoxicity at 72 h [4]: 18%
26 | 2400 | 120 | COCCn1c(=O)nc(-c2ccc(NCCN3CCCC3)cc2)c2oc3ccccc3c21 | > 7400 | –
27 | 2600 | 650 | NC(=O)C1CCCN1CCn1c(=O)nc(-c2ccccc2)c2oc3ccc(Cl)cc3c21 (centres undefined) | > 6700 | –
28 | > 11000 | 818 | COCCn1c(=O)nc(-c2ccc(COCCN(C)C)cc2)c2oc3ccccc3c21 | – | –
29 | 3600 | 1200 | COCCn1c(=O)nc(-c2ccc(NC(=O)CN(C)C)cc2)c2oc3ccccc3c21 | > 11000 | cytotoxicity at 72 h [4]: 15%
30 | 4400 | 1400 | COCCn1c(=O)nc(-c2ccc(NC(=O)C(C)N(C)C)cc2)c2oc3ccccc3c21 (centres undefined) | > 11000 | cytotoxicity at 72 h [4]: 14%
31 | – | 6500 | O=c1nc(-c2ccccc2)c2oc3ccc(Cl)cc3c2n1CCN1CCOCC1 | – | –

Row | Structure (SMILES) | EC50 [2] [nM] | IC50 [3] [nM] | CC50 at 72 h [1] [nM] | further results
32 | CN1CCc2cc(-c3ccc4oc5c(-c6ccccc6)nc(=O)n(CCN6CCCC6C(N)=O)c5c4c3)ccc2C1 (centres undefined) | 52 | 5.9 | – | Papp at 10 µM [5]: 0.17 ×10⁻⁶ cm/s; Ratio EC50 [6]: 5.8; Ratio EC50 [7]: 0.3; Ratio EC50 [8]: 1.7; half-life at 1 µM [9]: 1 h; Ratio EC50 [10]: 8.4; solubility at 24 h [11]: 725 µg/mL (≈ 1320 µM); half-life at 1 µM [12]: 1.22 h; Ratio EC50 [13]: 14.2; solubility at 24 h [14]: 781 µg/mL (≈ 1430 µM); Ratio CC50/EC50 [15]: >127; logD at 24 h [16]: 3
33 | CCNCC(=O)Nc1ccc(-c2nc(=O)n(CCOC)c3c2oc2ccc(-c4ccc5c(c4)CCN(C)C5)cc23)cc1 | 30 | 4.2 | 4800 | Papp at 10 µM [5]: < 0.1 ×10⁻⁶ cm/s; Ratio EC50 [6]: 1.1; Ratio EC50 [7]: 0.1; Ratio EC50 [8]: 1.1; half-life at 1 µM [9]: 2.33 h; Ratio EC50 [10]: 1.5; solubility at 24 h [11]: 650 µg/mL (≈ 1150 µM); half-life at 1 µM [12]: 1.55 h; Ratio EC50 [13]: 3.3; Ratio EC50 [17]: 2; solubility at 24 h [14]: > 822 µg/mL; Ratio CC50/EC50 [15]: 137; logD at 24 h [16]: 2.4
34 | CN1CCc2cc(-c3ccc4oc5c(-c6ccccc6)nc(=O)n(CCN6CCC(F)(F)C6)c5c4c3)ccc2C1 | 25 | 20 | – | Papp at 10 µM [5]: 0.55 ×10⁻⁶ cm/s; Ratio EC50 [6]: 4.8; Ratio EC50 [7]: 0.3; Ratio EC50 [8]: 1.7; half-life at 1 µM [9]: 0.1 h; Ratio EC50 [10]: 7.3; solubility at 24 h [11]: < 0.1 µg/mL; half-life at 1 µM [12]: 0.317 h; Ratio EC50 [13]: 14.8; solubility at 24 h [14]: > 1000 µg/mL; Ratio CC50/EC50 [15]: >46; logD at 24 h [16]: 3.9
